Results taken from patent US20130158362A1 (INFACARE PHARMACEUTICAL CORPORATION, priority 2011, published 2013).
“And” between values parts separate entries of the source, which are not always exact repeats. Equal entries are not always repeated. “Also recorded” adds a separate entry of the source. Marks after values point to notes of the source that are not given here.

Columns and labels:
[1] = animal studies; doses approximately equivalent to the proposed human dose; cited from earlier work
heme oxygenase = conditions: cited from earlier work
[2] = tested on: term and late preterm subjects with hyperbilirubinemia; assay: Phase 2b trial: dermatological assessment (rash); assay type: in vivo, human
Description: In some embodiments, dermatological examinations comprise the identification of photosensitive reactions if any. Photosensitive reaction may occur with metalloporphyrins and broad spectrum light. Photosensitive reactions include skin rashes.
(§1) Safety measurements included adverse events (AEs), hematology and chemistry laboratory tests, vital sign measurements, physical examinations, dermatological assessments, hearing assessments, ophthalmological assessments, neurological assessments, and quantitative electrocardiograms (ECGs).

[3] = tested on: term and late preterm subjects with hyperbilirubinemia; assay: Phase 2b trial: vital signs, physical, neurological, audiology and ophthalmological examinations; assay type: in vivo, human
Description: as §1
(§2) All other safety endpoints (vital sign measurements, hematology and chemistry laboratory tests, physical examination results, ECG results, etc.) were summarized by treatment group and visit. In addition, shift tables were generated for laboratory results comparing postbaseline results with baseline. Similar shift tables were generated for results of vital sign measurements.

[4] = tested on: term and late preterm subjects with hyperbilirubinemia; assay: Phase 2b trial: hematology and chemistry laboratory tests (platelet counts); assay type: in vivo, human; conditions: for Platelet counts (mean), Delta: baseline to 48 hours
Description: as §1, §2

[5] = Phase 2b trial: pharmacokinetics of stannsoporfin in plasma after IM injection; assay type: in vivo, human
Description: Pharmacokinetic Assessments: Subjects were stratified into 2 groups having different sampling times to better characterize the PK curves.

[6] = tested on: term and late preterm subjects with hyperbilirubinemia; assay: Phase 2b trial: quantitative electrocardiograms (QT); assay type: in vivo, human
Description: In some embodiments, 12-Lead ECGs measurements comprise clarification of a cardiovascular event, measurement of cardiac intervals and morphological assessment, measurements of the RR, PR, QRS, and QT interval durations and combinations thereof. In some embodiments, Bazett's correction of the QT interval (QTcB), Fridericia's correction of the QT interval (QTcF), and heart rate (HR) can be derived from 12-Lead ECGs measurements.
as §1, §2

[7] = tested on: term and late preterm subjects with hyperbilirubinemia; assay: Phase 2b trial: need for phototherapy/exchange transfusion, time to PT, duration of PT, time to hospital discharge; assay type: in vivo, human; conditions: for Time to discharge, Mean: from treatment; for Time to PT (range): subjects who needed PT
Experimental: PT was standardized for this study. TSB levels were initially assessed at 6 hours after IM injection to determine if PT was necessary. If the subject met the AAP Guidelines for starting PT, PT was initiated, and if the criteria were not met at the time, the subjects continued in the study until the next TSB level assessment (at 12, 24, and 48 hours following IMP injection). If, at any of these time points, the subject met the criteria for initiation of PT per AAP Guidelines, then PT was started.
In subjects receiving PT, determinations to assess whether or not PT was still required were done every 6 hours (±15 min); if the TSB was declining over 2 of these 6 hour assessments, TSB assessments could be done every 12 hours (±15 min). PT was stopped after 1 declining TSB assessment had been reviewed and the TSB level had declined to at least 2 mg/dL below the threshold for PT (as determined by the age of the subject when the blood was collected). As part of the clinical management of the subject, once PT was stopped, a TSB assessment was performed at approximately 6 hours later to assure there was no rebound in the bilirubin level. If the TSB rebounded above the threshold for PT, further clinical management was at the discretion of the principal investigator. After completion of Visit 4 (Day 30), parents/guardians were asked to enroll the completed subjects into a long term safety follow-up study.
The Secondary Efficacy Endpoints were the change from baseline in unadjusted TSB at 48 hours after treatment, change from baseline in adjusted and unadjusted TSB at various other time points after treatment, percent change from baseline in unadjusted TSB, proportion of subjects who require PT/exchange transfusion (ET), time to PT/ET, duration of PT and time to hospital discharge.
Analysis of Efficacy Parameters: The primary efficacy analysis applied the analysis of covariance (ANCOVA) method to determine if there was a significant difference between treatment groups in change in adjusted TSB levels from baseline to 48 hours post baseline after controlling for the effects of gestational age and adjusted baseline TSB levels. If assumptions of ANCOVA appeared to be violated, a Wilcoxon rank-sum test could be performed instead. Time-to-event variables were analyzed using the Kaplan-Meier method, and Kaplan-Meier survival curves were presented.

[8] = 4.5 mg dose, baseline to 48 hours post dose

tin IV mesoporphyrin IX dichloride [Stannsoporfin]
effects on ECG, central nervous system, cardiovascular, pulmonary and renal functions [1]: no biologically significant effects
inhibition of heme oxygenase (heme oxygenase): potent competitive inhibitor
Rash and PT, n (% of those with a rash) ([2]; 1.5 mg/kg IM): 2 (66.7%)
Subjects with any rash, n (%) ([2]; 1.5 mg/kg IM): 3 (17.6%)
types of rashes observed ([2]; 1.5 mg/kg IM): Contusion; also recorded: Diaper Dermatitis; also recorded: PT Induced rash*; also recorded: Desquamation; also recorded: Contact Dermatitis
Rash and PT, n (% of those with a rash) ([2]; 3.0 mg/kg IM): 3 (37.5%)
Subjects with any rash, n (%) ([2]; 3.0 mg/kg IM): 8 (44.4%)
types of rashes observed ([2]; 3.0 mg/kg IM): Neonatal Acne; also recorded: Erythema; also recorded: Seborrhea; also recorded: Diaper rash; also recorded: Flushing
Rash and PT, n (%) ([2]; 4.5 mg/kg IM): 1 (12.5%)
Subjects with any rash, n (%) ([2]; 4.5 mg/kg IM): 1 (13.3%)
types of rashes observed ([2]; 4.5 mg/kg IM): Erythema **
effect on vital signs (blood pressure, pulse, respiratory rate, temperature) ([3]; 1.5 to 4.5 mg/kg IM, preliminary data): no effect
mean pulse ([3]; 45 minutes after treatment, no longer observed at 1.5 hours): decrease in mean pulse
audiology examinations ([3]; screening, 48 hours after treatment/hospital discharge, or early termination, all subjects): normal
Platelet counts (mean) ([4]; 1.5 mg/kg IM, 48 hours): 234.000
Platelet counts (mean) ([4]; 1.5 mg/kg IM, Day 14): 477,000
Platelet counts (mean), Delta ([4]; 1.5 mg/kg IM): −31,000
Platelet counts (mean) ([4]; 3.0 mg/kg IM, 48 hours): 220,000
Platelet counts (mean) ([4]; 3.0 mg/kg IM, Day 14): 453,000
Platelet counts (mean), Delta ([4]; 3.0 mg/kg IM): −43,000
Platelet count, individual subjects, % Change [4, 8]: 68.6% and 47.1% and 60.8% and 2.9% and 8.4% and 41.0%
Platelet count, individual subjects, Delta [4, 8]: −153,000 and −113,000 and −141,000 and −11,000 and −22,000 and −128,000
Platelet counts (mean) ([4]; 4.5 mg/kg IM, 48 hours): 180,000
Platelet counts (mean) ([4]; 4.5 mg/kg IM, Day 14): 441,000
Platelet counts (mean), Delta ([4]; 4.5 mg/kg IM): −85,000
Platelet count, individual subjects ([4]; 4.5 mg/kg dose, 48 hours post dose (n = 6)): 70,000* and 127,000† and 91,000** and 368,000 and 240,000 and 184,000†
platelets at 48 hours ([4]; 4.5 mg/kg, all subjects, normalized by Day 14): moderate drops in platelets
Chemistries, liver function tests and renal function tests ([4]; 1.5 to 4.5 mg/kg IM): normal
Platelet counts from baseline to 48 hours after administration ([4]; all stannsoporfin doses, placebo remained stable): decreased
average platelet counts by day 14 ([4]; all test groups): returned to the normal range
T1/2 ([5]; 1.5 mg/kg IM): 5.46 h
Tmax ([5]; 1.5 mg/kg IM): 1.87 h
T1/2 ([5]; 3.0 mg/kg IM): 10.7 h
Tmax ([5]; 3.0 mg/kg IM): 1.52 h
T1/2 ([5]; 4.5 mg/kg IM): 9.86 h
Tmax ([5]; 4.5 mg/kg IM): 2.3 h
T1/2, Mean of the three doses ([5]; 1.5, 3.0 and 4.5 mg/kg IM): 8.6 h
Tmax, Mean of the three doses ([5]; 1.5, 3.0 and 4.5 mg/kg IM): 1.89 h
increase in Cmax with dose ([5]; 1.5 to 4.5 mg/kg dose range): dose-proportional increase
elimination half-life ([5]; IM injection, final data): approximately 10 hours
time of peak plasma concentrations post-treatment ([5]; IM injection, final data): ≤ 1 h
time plasma stannsoporfin concentrations measurable post treatment ([5]; all subjects at doses of 3 mg/kg and above): at least 48 hours
intersubject variability in Cmax and AUCs ([5]; neonates, IM): ≤ 30%
QT prolongation ([6]; 1.5 to 4.5 mg/kg IM): no QT prolongation
effect on heart rate, PR interval, RR interval, QRS complexes and QT interval ([6]; 1.5 to 4.5 mg/kg IM): no effect
ECG results compared to the placebo group ([6]; final data): no dose-related trends or marked differences
maximum duration of PT ([7]; 1.5 mg/kg): 1426 min
Duration of PT ([7]; 1.5 mg/kg IM): about 20 hours
Time to discharge, Range ([7]; 1.5 mg/kg IM): 14.6 to 143.3 h
subjects who received/required phototherapy (PT), n (%) ([7]; 1.5 mg/kg IM, N = 17): 3 (17.6%)
Time to discharge, Mean ([7]; 1.5 mg/kg IM): 38 h
Time to PT (range) ([7]; 1.5 mg/kg IM): 5.2 to 17.8 h
maximum duration of PT ([7]; 3 mg/kg): 1140 min
Duration of PT ([7]; 3.0 mg/kg IM): about 14 hours
Time to discharge, Range ([7]; 3.0 mg/kg IM): 11.5 to 77.0 h
subjects who received/required phototherapy (PT), n (%) ([7]; 3.0 mg/kg IM, N = 18): 6 (33.3%)
Time to discharge, Mean ([7]; 3.0 mg/kg IM): 42.8 h
Time to PT (range) ([7]; 3.0 mg/kg IM): 7.2 to 15.2 h
maximum duration of PT ([7]; 4.5 mg/kg): 990 min
Duration of PT ([7]; 4.5 mg/kg IM): about 14 hours
Time to discharge, Range ([7]; 4.5 mg/kg IM): 15 to 405.3 h
subjects who received/required phototherapy (PT), n (%) ([7]; 4.5 mg/kg IM, N = 8): 2 (25%)
Time to discharge, Mean ([7]; 4.5 mg/kg IM): 48.3 h
Time to PT (range) ([7]; 4.5 mg/kg IM): 7.3 to 8.8 h
time to hospital discharge compared to placebo ([7]; 4.5 mg/kg, largely due to 1 subject with meningitis): significantly greater
exchange transfusions (ET) required ([7]; all dose groups): no exchange transfusions; also recorded: no subjects requiring ET
readmission to hospital ([7]; all stannsoporfin dose groups): No subjects who received stannsoporfin were readmitted
treated infants requiring subsequent phototherapy ([7]; single 1.5 mg/kg dose): 17.6%
